What was measured:
[1] = NOVARTIS: Cytotoxicity against human hepatocellular carcinoma cell line (Huh7); assay type: toxicity, cell-based, Huh-7; details: Huh7 cells (hepatocellular carcinoma cell line)
[2] = system: Plasmodium falciparum; assay: NOVARTIS: Inhibition of Plasmodium falciparum 3D7 (drug-susceptible) proliferation in erythrocyte-based infection assay; assay type: functional, organism-based; details: Plasmodium falciparum, 3D7
[3] = system: Plasmodium falciparum; assay: NOVARTIS: Inhibition of Plasmodium falciparum W2 (drug-resistant) proliferation in erythrocyte-based infection assay; assay type: functional, organism-based; details: Plasmodium falciparum, W2; read-out: EC50

SMILES	CC50 [1] [nM]	EC50 [2] [nM]	EC50 [3] [nM]
CN(C)c1cc(NC(=O)Nc2ccccc2)c2ccccc2n1	6780	148	332
CCN1C=CC(=Cc2ccc3ccccc3[n+]2C)C=C1	20000	453	976
Oc1cccc(Nc2nc(NCC3CCCO3)c3ccccc3n2)c1 (stereo not given)	6980	266	341
Oc1cccc(-c2nc(-c3ccccc3)c(-c3ccc4oc5ccc(-c6[nH]c(-c7cccc(O)c7)nc6-c6ccccc6)cc5c4c3)[nH]2)c1	20400	2350	1010
Cc1ccc(Nc2nc(NN=Cc3ccc(-c4ccc([N+](=O)[O-])cc4)o3)nc(N3CCOCC3)n2)cc1Cl	> 10000	> 598	503
CCCCCCCCC(=O)N1CCN(C(CC)c2nc3ccccc3c(=O)n2C)CC1 (stereo not given)	> 10000	492	500
COc1ccccc1C(=O)N1CCN(Cc2ccc3ccccc3c2)CC1	> 100000	> 12500	4860
CCC(C(=O)N(C)CCCNc1ccnc2cc(Cl)ccc12)c1ccccc1 (stereo not given)	6170	311	310
O=C(CN1C(=O)c2ccccc2C1=O)Nc1cc(Cl)ccc1C(=O)O	> 10000	> 1250	486
c1ccc(CCCNc2ccnc3cc4ccccc4cc23)cc1	4140	199	209
COc1ccccc1CN1CCC(S(=O)(=O)c2ccccc2)CC1	1080	349	52.3
COc1ccc(CN2C[C@H](Sc3nc4ccccc4[nH]3)C[C@H]2C(=O)NC2CC2)cc1C	16500	545	830
CN(C)C(=O)C1C2NC(=S)N(c3ccccc3)C1(C)Oc1ccccc12 (stereo not given)	> 10000	1750	483
Cc1ccccc1-c1cnnc(NCC2CCCCO2)n1 (stereo not given)	> 100000	11100	4820
CN1CCc2c(C#N)c(N3CCCC3)nc(N3CCCC3)c2C1	> 100000	2120	4820
CCCCCN(C(=O)c1cccc(F)c1)C(CC)c1nc2ccccc2c(=O)n1-c1ccc(Cl)cc1C (stereo not given)	> 10000	1460	480
O=C(NCCCCNc1ccnc2cc(Cl)ccc12)C1CCCC1	> 10000	409	485
COc1ccc(S(=O)(=O)NCCCCNc2ccnc3cc(Cl)ccc23)cc1	> 10000	345	484
Cc1nc(CC(=O)N2CCCC(CNC(=O)C3(c4ccc(Cl)cc4)CC3)C2)cs1 (stereo not given)	> 100000	> 12500	5020
O=C(NCCCCNc1ccnc2cc(Cl)ccc12)c1ccccc1Br	> 10000	468	494
COc1ccccc1NC(=O)c1cnn(-c2ccccc2)c1-n1cccc1	> 10000	> 119	494
CN1CCN(c2cc(-c3ccncc3)nc(-c3cccnc3)n2)CC1	> 10000	511	494
CCOC(=O)c1cnc2c(OC)cccc2c1Nc1ccc(OC)c(OC)c1	> 10000	827	493
O=[N+]([O-])c1cc(C(F)(F)F)c(Cl)c([N+](=O)[O-])c1Nc1cc(C(F)(F)F)ccc1Cl	6130	565	301
CCOc1ccc(N=C2NC(=O)SC2=C2C(=O)Nc3ccc(Br)cc32)cc1	> 100000	> 12500	4910
c1ccc(CN2CCC(Nc3ncnc4cc(-c5ccccc5)sc34)CC2)cc1	> 100000	2060	4890
COCCNCCN1CCN(c2ccc(C)cc2)C[C@@H]1c1ccccc1	11200	436	548
Cc1ccc(N=C2NC(=O)/C(=C\c3cc(C)n(-c4cccc([N+](=O)[O-])c4)c3C)S2)cc1	> 10000	442	488

SMILES	CC50 [1] [nM]	EC50 [2] [nM]	EC50 [3] [nM]
CN(C)c1cc[n+](Cc2ccccc2)cc1	> 100000	2420	> 4870
CN(C)c1ccc(/C=C2\SC(=Nc3ccc(F)cc3)NC2=O)cc1	> 10000	361	493
CC(=O)Nc1ccc2c(c1)C(=O)N(C(CC(C)C)C(=O)NCC(=O)O)[C@@H](CCC(=O)OCc1ccccc1)C(=O)N2 (stereo not given in full)	> 10000	48.2	> 503
CCN(CC)CCCC(C)NCc1ccc(OCc2ccccc2)c(OC)c1 (stereo not given)	> 10000	771	494
OC(CNC1CCN(Cc2ccccc2)CC1)COc1ccc(Br)cc1 (stereo not given)	> 10000	745	499
CCCCCCCCCn1c2c(c(=N)c3c1CCC3)CCCC2	3740	132	185
Cc1ccc(S(=O)(=O)N=C2C=C(Sc3nc4ccccc4[nH]3)C(=O)c3ccccc32)cc1	16800	632	834
CC(C)(C)CC(C)(C)Nc1c(-c2ccccc2OC(=O)c2ccco2)nc2ccccn12	> 100000	> 12500	4960
CCN1C=C(c2ccc(C)cc2)S/C1=C\c1sc2ccccc2[n+]1C	18800	362	938
COc1ccc(-c2ccc3c(N)c(C(=O)NCCc4ccccc4)sc3n2)cc1OC	> 100000	> 10800	4970
Cc1cc(N2CCN(C)CC2)nc2ccc(NC(=O)c3ccc(Br)o3)cc12	53700	1680	2680
CCN(Cc1ccccc1)Cc1c(O)ccc2oc(C)c(C(=O)Nc3ccc(C)cc3C)c12	42300	3490	2100
CCC(Sc1nc(C)cc(-c2ccccc2)n1)C(=O)Nc1cccc2ccccc12 (stereo not given)	> 10000	> 1250	496
Cc1nn(C(=O)NS(=O)(=O)c2ccccc2Cl)c(C)c1C	> 10000	> 810	> 496
COc1ccc(CN(Cc2cc3cccc(C)c3[nH]c2=O)C(=S)NC2CCCCC2)cc1	> 10000	> 1250	487
CCOC(=O)c1ccc(NC(=O)c2cc3ccccn3n2)cc1	> 10000	> 1250	> 500
Cc1ccc2nc3c(c(Nc4ccc(N(C)C)cc4)c2c1)CCC3	19800	1790	950
O=C(c1ccc([N+](=O)[O-])cc1[N+](=O)[O-])N1CCCCC1	> 100000	> 12500	4860
Cc1cc(N2CCCC2)nc2ccc(NC(=S)NCCCN3CCc4ccccc4C3)cc12	19100	263	924
C=CCSc1oc(-c2ccco2)nc1[P+](c1ccccc1)(c1ccccc1)c1ccccc1	8420	310	416
COc1cc(NC(C)CCCN(Cc2ccc(N(C)C)cc2)C(=O)c2ccc(F)cc2)c2ncccc2c1 (stereo not given)	> 10000	> 630	501
CC(=O)N1CCNC1=Nc1c(Cl)nc(C)nc1Cl	> 10000	444	498
COc1cc(CN2CCN(c3ccccn3)CC2)cc(I)c1O	> 100000	> 9900	4890
O=C(NCCc1ccc(-c2ccccc2)cc1)c1ccc(NS(=O)(=O)C(F)(F)F)cc1	> 8730	> 1250	> 439
C=CCOc1ccccc1CN1CCN(c2ccccn2)CC1	> 98500	> 9990	4850
COc1cc(OC)cc(C(=O)N2CCC(C(=O)Nc3cccc4ccccc34)CC2)c1	> 10000	> 481	485
O=C(CCCCCN1C(=O)c2cccc3cccc(c23)C1=O)NO	3320	563	164
